Tests used:
CCRF-CEM = experiment: panel of 60 human tumor cell lines, growth inhibition (Leukemia)
OVCAR-3 = experiment: panel of 60 human tumor cell lines, growth inhibition (Ovarian Cancer); details: OVCAR-3
MDA-MB-468 = experiment: panel of 60 human tumor cell lines, growth inhibition (Breast Cancer); details: MDA-MB-468
HCT-15 = experiment: panel of 60 human tumor cell lines, growth inhibition (Colon Cancer); details: HCT-15
NCI-H23 = experiment: panel of 60 human tumor cell lines, growth inhibition (Non-Small Cell Lung Cancer); details: NCI-H23
SK-OV-3 = experiment: panel of 60 human tumor cell lines, growth inhibition (Ovarian Cancer); details: SK-OV-3
NCI-H522 = experiment: panel of 60 human tumor cell lines, growth inhibition (Non-Small Cell Lung Cancer); details: NCI-H522
TK-10 = experiment: panel of 60 human tumor cell lines, growth inhibition (Renal Cancer); details: TK-10
HOP-92 = experiment: panel of 60 human tumor cell lines, growth inhibition (Non-Small Cell Lung Cancer); details: HOP-92
IGROV1 = experiment: panel of 60 human tumor cell lines, growth inhibition (Ovarian Cancer); details: IGROVI
UACC-257 = experiment: panel of 60 human tumor cell lines, growth inhibition (Melanoma); details: UACC-257
BT-549 = experiment: panel of 60 human tumor cell lines, growth inhibition (Breast Cancer); details: BT-549
SK-MEL-5 = experiment: panel of 60 human tumor cell lines, growth inhibition (Melanoma); details: 8K-MEL-5
MCF7 = experiment: panel of 60 human tumor cell lines, growth inhibition (Breast Cancer); details: MCF7
OVCAR-8 = experiment: panel of 60 human tumor cell lines, growth inhibition (Ovarian Cancer); details: OVCAR-8
COLO 205 = experiment: panel of 60 human tumor cell lines, growth inhibition (Colon Cancer); details: COLO 205
RXF 393 = experiment: panel of 60 human tumor cell lines, growth inhibition (Renal Cancer); details: RXF 393
A549/ATCC = experiment: panel of 60 human tumor cell lines, growth inhibition (Non-Small Cell Lung Cancer); details: A549/ATCC

C=C1C(=O)O[C@H]2[C@H]1CC/C(COC(=O)N1CCC(F)(F)CC1)=C\CC[C@@]1(C)O[C@@H]21 [JVM 2-66]
GI50 (CCRF-CEM): 682 nM | TGI (CCRF-CEM): 3.41E−6 | Percent Growth (CCRF-CEM; Log10 Concentration −4.0): −53% | Percent Growth (CCRF-CEM; Log10 Concentration −5.0): −36% | Percent Growth (CCRF-CEM; Log10 Concentration −6.0): 41% | Percent Growth (CCRF-CEM; Log10 Concentration −7.0): 97% | Percent Growth (CCRF-CEM; Log10 Concentration −8.0): 97% | GI50 (OVCAR-3): 1690 nM | TGI (OVCAR-3): 4.03E−6 | Percent Growth (OVCAR-3; Log10 Concentration −4.0): −99% | Percent Growth (OVCAR-3; Log10 Concentration −5.0): −52% | Percent Growth (OVCAR-3; Log10 Concentration −6.0): 80% | Percent Growth (OVCAR-3; Log10 Concentration −7.0): 95% | Percent Growth (OVCAR-3; Log10 Concentration −8.0): 101% | GI50 (MDA-MB-468): 578 nM | TGI (MDA-MB-468): 2.65E−6 | Percent Growth (MDA-MB-468; Log10 Concentration −4.0): −75% | Percent Growth (MDA-MB-468; Log10 Concentration −5.0): −48% | Percent Growth (MDA-MB-468; Log10 Concentration −6.0): 36% | Percent Growth (MDA-MB-468; Log10 Concentration −7.0): 96% | Percent Growth (MDA-MB-468; Log10 Concentration −8.0): 88% | GI50 (HCT-15): 1470 nM | TGI (HCT-15): 3.84E−6 | Percent Growth (HCT-15; Log10 Concentration −4.0): −86% | Percent Growth (HCT-15; Log10 Concentration −5.0): −50% | Percent Growth (HCT-15; Log10 Concentration −6.0): 70% | Percent Growth (HCT-15; Log10 Concentration −7.0): 94% | Percent Growth (HCT-15; Log10 Concentration −8.0): 100% | GI50 (NCI-H23): 2590 nM | TGI (NCI-H23): 8.51E−6 | Percent Growth (NCI-H23; Log10 Concentration −4.0): −70% | Percent Growth (NCI-H23; Log10 Concentration −5.0): −7% | Percent Growth (NCI-H23; Log10 Concentration −6.0): 98% | Percent Growth (NCI-H23; Log10 Concentration −7.0): 96% | Percent Growth (NCI-H23; Log10 Concentration −8.0): 93% | GI50 (SK-OV-3): 16200 nM | TGI (SK-OV-3): 3.22E−5 | Percent Growth (SK-OV-3; Log10 Concentration −4.0): −83% | Percent Growth (SK-OV-3; Log10 Concentration −5.0): 85% | Percent Growth (SK-OV-3; Log10 Concentration −6.0): 100% | Percent Growth (SK-OV-3; Log10 Concentration −7.0): 92% | Percent Growth (SK-OV-3; Log10 Concentration −8.0): 100% | GI50 (NCI-H522): 1250 nM | TGI (NCI-H522): 2.75E−6 | Percent Growth (NCI-H522; Log10 Concentration −4.0): −80% | Percent Growth (NCI-H522; Log10 Concentration −5.0): −81% | Percent Growth (NCI-H522; Log10 Concentration −6.0): 64% | Percent Growth (NCI-H522; Log10 Concentration −7.0): 92% | Percent Growth (NCI-H522; Log10 Concentration −8.0): 91% | GI50 (TK-10): 2600 nM | TGI (TK-10): 6.55E−6 | Percent Growth (TK-10; Log10 Concentration −4.0): −96% | Percent Growth (TK-10; Log10 Concentration −5.0): −23% | Percent Growth (TK-10; Log10 Concentration −6.0): 102% | Percent Growth (TK-10; Log10 Concentration −7.0): 95% | Percent Growth (TK-10; Log10 Concentration −8.0): 94% | GI50 (HOP-92): 1450 nM | TGI (HOP-92): 3.89E−6 | Percent Growth (HOP-92; Log10 Concentration −4.0): −94% | Percent Growth (HOP-92; Log10 Concentration −5.0): −48% | Percent Growth (HOP-92; Log10 Concentration −6.0): 69% | Percent Growth (HOP-92; Log10 Concentration −7.0): 92% | Percent Growth (HOP-92; Log10 Concentration −8.0): 95% | GI50 (IGROV1): 2310 nM | TGI (IGROV1): 7.26E−6 | Percent Growth (IGROV1; Log10 Concentration −4.0): −60% | Percent Growth (IGROV1; Log10 Concentration −5.0): −14% | Percent Growth (IGROV1; Log10 Concentration −6.0): 87% | Percent Growth (IGROV1; Log10 Concentration −7.0): 106% | Percent Growth (IGROV1; Log10 Concentration −8.0): 107% | GI50 (UACC-257): 2340 nM | TGI (UACC-257): 1.02E−5 | Percent Growth (UACC-257; Log10 Concentration −4.0): −90% | Percent Growth (UACC-257; Log10 Concentration −5.0): 1% | Percent Growth (UACC-257; Log10 Concentration −6.0): 79% | Percent Growth (UACC-257; Log10 Concentration −7.0): 96% | Percent Growth (UACC-257; Log10 Concentration −8.0): 94% | GI50 (BT-549): 2690 nM | TGI (BT-549): 8.54E−6 | Percent Growth (BT-549; Log10 Concentration −4.0): −99% | Percent Growth (BT-549; Log10 Concentration −5.0): −7% | Percent Growth (BT-549; Log10 Concentration −6.0): 93% | Percent Growth (BT-549; Log10 Concentration −7.0): 98% | Percent Growth (BT-549; Log10 Concentration −8.0): 100% | GI50 (SK-MEL-5): 3810 nM | TGI (SK-MEL-5): 1.50E−5 | Percent Growth (SK-MEL-5; Log10 Concentration −4.0): −96% | Percent Growth (SK-MEL-5; Log10 Concentration −5.0): 21% | Percent Growth (SK-MEL-5; Log10 Concentration −6.0): 91% | Percent Growth (SK-MEL-5; Log10 Concentration −7.0): 99% | Percent Growth (SK-MEL-5; Log10 Concentration −8.0): 99% | GI50 (MCF7): 1620 nM | TGI (MCF7): 4.91E−6 | Percent Growth (MCF7; Log10 Concentration −4.0): −75% | Percent Growth (MCF7; Log10 Concentration −5.0): −32% | Percent Growth (MCF7; Log10 Concentration −6.0): 72% | Percent Growth (MCF7; Log10 Concentration −7.0): 83% | Percent Growth (MCF7; Log10 Concentration −8.0): 89% | GI50 (OVCAR-8): 2830 nM | TGI (OVCAR-8): 1.01E−5 | Percent Growth (OVCAR-8; Log10 Concentration −4.0): −86% | Percent Growth (OVCAR-8; Log10 Concentration −6.0): 91% | Percent Growth (OVCAR-8; Log10 Concentration −7.0): 96% | Percent Growth (OVCAR-8; Log10 Concentration −8.0): 98% | GI50 (COLO 205): 2060 nM | TGI (COLO 205): 4.17E−6 | Percent Growth (COLO 205; Log10 Concentration −4.0): −93% | Percent Growth (COLO 205; Log10 Concentration −5.0): −62% | Percent Growth (COLO 205; Log10 Concentration −6.0): 101% | Percent Growth (COLO 205; Log10 Concentration −7.0): 96% | Percent Growth (COLO 205; Log10 Concentration −8.0): 102% | GI50 (RXF 393): 1200 nM | TGI (RXF 393): 2.53E−6 | Percent Growth (RXF 393; Log10 Concentration −4.0): −92% | Percent Growth (RXF 393; Log10 Concentration −5.0): −92% | Percent Growth (RXF 393; Log10 Concentration −6.0): 62% | Percent Growth (RXF 393; Log10 Concentration −7.0): 95% | Percent Growth (RXF 393; Log10 Concentration −8.0): 100% | GI50 (A549/ATCC): 11300 nM | TGI (A549/ATCC): 2.74E−5 | Percent Growth (A549/ATCC; Log10 Concentration −4.0): −73% | Percent Growth (A549/ATCC; Log10 Concentration −5.0): 57% | Percent Growth (A549/ATCC; Log10 Concentration −6.0): 93% | Percent Growth (A549/ATCC; Log10 Concentration −7.0): 97% | Percent Growth (A549/ATCC; Log10 Concentration −8.0): 98%

— patent publication US9469650B2, “Melampomagnolide B derivatives” (BOARD OF TRUSTEES OF THE UNIVERSITY OF ARKANSAS, priority 2013, dated 2016)
